{"source": "patent US20080200405A1", "about": "“Drug Resistance Reversal In Neoplastic Disease” (priority 2007, published 2008)", "key": {"TNFα": {"tested_on": "TNFα", "assay": "Measurement of LPS Induced-TNFα in THP-1 Cells", "assay_type": "cell-based, human", "conditions": "Homo sapiens, THP-1; compound 10 uM; 5 ng/mL LPS; read-out: Mean Percent Inhibition of TNF-alpha using 5 ng/mL LPS"}, "[1]": {"tested_on": "bFGF-induced angiogenesis in the CAM model", "assay": "bFGF (FGF2)-stimulated CAM model", "assay_type": "in vivo, chicken", "conditions": "bFGF/FGF2 1 ug, 30 ug injected"}, "[2]": {"assay": "In vitro stability of OT-551 in rat plasma", "assay_type": "in vitro ADME", "description": "(§1) The active metabolite of OT-551 (Cyclopropanecarboxylic acid 1-hydroxy-2,2,6,6-tetramethyl-piperidin-4-yl ester) is TP-H. The objective of this analysis was to determine the in vitro half-life of OT-551 in rat, rabbit, dog, and human plasma under standardized incubation conditions.\n(§2) OT-551 was incubated with pooled rat, rabbit, dog, and human plasma for various times under standardized incubation conditions. Pre-labeled tubes containing pooled plasma from rats, rabbits, dogs, and humans were pre-incubated in a shaking 37° C. water bath. A OT-551 solution was added to the tubes at a final concentration of 1000 ng/mL. Time zero samples (n=5) were immediately removed and transferred into tubes containing a stabilizer solution (DTPA, acetylcysteine and ascorbic acid), the LC/MS/MS assay internal standard and methanol. […] The tubes were vortexed, placed on ice, followed by centrifugation. One hundred-μL aliquots of the supernatant were transferred into HPLC sample vials. Additional tubes (n=5 at each time point) were incubated for 5, 10, 20, 30, 60, 120, and 240 minutes at 37° C. and thereafter processed. The amount of OT-551 and TP-H in each incubated sample was quantified using validated LC/MS/MS assays."}, "[3]": {"assay": "In vitro stability of OT-551 in rabbit plasma", "assay_type": "in vitro ADME", "description": "as §1, §2"}, "[4]": {"assay": "In vitro stability of OT-551 in dog plasma", "assay_type": "in vitro ADME", "description": "as §1, §2"}, "[5]": {"assay": "Single-dose 10-minute intravenous infusion toxicokinetics of OT-551", "assay_type": "in vivo, Sprague-Dawley rats", "conditions": "for Cmax of OT-551: Sprague-Dawley rats", "description": "Blood for toxicokinetic evaluations was collected at pre-determined time points during and after the infusion. Plasma samples were analyzed for OT-551 and TP-H using validated LC/MS/MS assays. Descriptive toxicokinetic parameters were determined by standard model independent methods (Gilbaldi and Perrier, 1982) based on the plasma concentration-time data. […] The plasma concentrations were rounded to the nearest tenth of a ng/mL before the calculations. […] Nominal time points were used for all calculations. Since there was no apparent gender difference in the plasma concentrations of OT-551 and TP-H, the data for male and female rats at each sampling time point were pooled."}}, "data": [{"compound": "CC1(C)CC(OC(=O)C2CC2)CC(C)(C)N1O.Cl", "note": "[OT-551, 1-hydroxy-4-cyclopropanecarbonyloxy-2,2,6,6-tetramethylpiperidine hydrochloride]", "values": [{"measurement": "inhibition at 10 µM", "setting": "TNFα", "result": "68 ± 6", "unit": "%"}, {"measurement": "inhibition in vivo at 0.03 mg", "setting": "[1]; Gallus gallus, read-out: % Inhibition ± SEM", "result": "74 ± 4", "unit": "%"}, {"measurement": "Branch pts ± SEM", "setting": "[1]", "result": "87 ± 3"}, {"measurement": "Concentrations (ng/mL) of OT-551 in Rat Plasma", "setting": "[2]; incubation time 0 min", "result": "806.50 ± 86.77", "unit": "ng/mL"}, {"measurement": "Concentrations (ng/mL) of OT-551 in Rat Plasma", "setting": "[2]; incubation time 5 min", "result": "770.32 ± 20.66", "unit": "ng/mL"}, {"measurement": "Concentrations (ng/mL) of OT-551 in Rat Plasma", "setting": "[2]; incubation time 10 min", "result": "745.77 ± 15.50", "unit": "ng/mL"}, {"measurement": "Concentrations (ng/mL) of OT-551 in Rat Plasma", "setting": "[2]; incubation time 20 min", "result": "682.88 ± 16.94", "unit": "ng/mL"}, {"measurement": "Concentrations (ng/mL) of OT-551 in Rat Plasma", "setting": "[2]; incubation time 30 min", "result": "613.79 ± 25.84", "unit": "ng/mL"}, {"measurement": "Concentrations (ng/mL) of OT-551 in Rat Plasma", "setting": "[2]; incubation time 60 min", "result": "480.48 ± 10.69", "unit": "ng/mL"}, {"measurement": "Concentrations (ng/mL) of OT-551 in Rat Plasma", "setting": "[2]; incubation time 120 min", "result": "277.94 ± 5.55", "unit": "ng/mL"}, {"measurement": "Concentrations (ng/mL) of OT-551 in Rat Plasma", "setting": "[2]; incubation time 240 min", "result": "80.70 ± 2.02", "unit": "ng/mL"}, {"measurement": "Concentrations (ng/mL) of OT-551 in Rabbit Plasma", "setting": "[3]; incubation time 0 min", "result": "502.75 ± 74.66", "unit": "ng/mL"}, {"measurement": "Concentrations (ng/mL) of OT-551 in Rabbit Plasma", "setting": "[3]; incubation time 5 min", "result": "14.56 ± 3.35", "unit": "ng/mL"}, {"measurement": "Concentrations (ng/mL) of OT-551 in Rabbit Plasma", "setting": "[3]; incubation time 10 min", "result": "0.00 ± 0.00", "unit": "ng/mL"}, {"measurement": "Concentrations (ng/mL) of OT-551 in Rabbit Plasma", "setting": "[3]; incubation time 20 min", "result": "0.00 ± 0.00", "unit": "ng/mL"}, {"measurement": "Concentrations (ng/mL) of OT-551 in Rabbit Plasma", "setting": "[3]; incubation time 30 min", "result": "0.00 ± 0.00", "unit": "ng/mL"}, {"measurement": "Concentrations (ng/mL) of OT-551 in Rabbit Plasma", "setting": "[3]; incubation time 60 min", "result": "0.00 ± 0.00", "unit": "ng/mL"}, {"measurement": "Concentrations (ng/mL) of OT-551 in Rabbit Plasma", "setting": "[3]; incubation time 120 min", "result": "0.00 ± 0.00", "unit": "ng/mL"}, {"measurement": "Concentrations (ng/mL) of OT-551 in Rabbit Plasma", "setting": "[3]; incubation time 240 min", "result": "0.00 ± 0.00", "unit": "ng/mL"}, {"measurement": "Concentrations (ng/mL) of OT-551 in Dog Plasma", "setting": "[4]; incubation time 0 min", "result": "771.12 ± 21.68", "unit": "ng/mL"}, {"measurement": "Concentrations (ng/mL) of OT-551 in Dog Plasma", "setting": "[4]; incubation time 5 min", "result": "804.93 ± 17.45", "unit": "ng/mL"}, {"measurement": "Concentrations (ng/mL) of OT-551 in Dog Plasma", "setting": "[4]; incubation time 10 min", "result": "811.14 ± 21.06", "unit": "ng/mL"}, {"measurement": "Concentrations (ng/mL) of OT-551 in Dog Plasma", "setting": "[4]; incubation time 20 min", "result": "809.01 ± 18.58", "unit": "ng/mL"}, {"measurement": "Concentrations (ng/mL) of OT-551 in Dog Plasma", "setting": "[4]; incubation time 30 min", "result": "789.53 ± 13.73", "unit": "ng/mL"}, {"measurement": "Concentrations (ng/mL) of OT-551 in Dog Plasma", "setting": "[4]; incubation time 60 min", "result": "717.22 ± 25.73", "unit": "ng/mL"}, {"measurement": "Concentrations (ng/mL) of OT-551 in Dog Plasma", "setting": "[4]; incubation time 120 min", "result": "608.14 ± 25.96", "unit": "ng/mL"}, {"measurement": "Concentrations (ng/mL) of OT-551 in Dog Plasma", "setting": "[4]; incubation time 240 min", "result": "428.20 ± 12.03", "unit": "ng/mL"}, {"measurement": "peak plasma concentration of OT-551 at the end of the infusion", "setting": "[5]; 10 mg/kg OT-551, 10-minute i.v. infusion", "result": 980.5, "unit": "ng/mL"}, {"measurement": "plasma level of OT-551 one hour after termination of the infusion", "setting": "[5]; 10 mg/kg, assay limit <50 ng/mL", "result": "not quantifiable"}, {"measurement": "peak plasma concentration of OT-551 at the end of the infusion", "setting": "[5]; 30 mg/kg OT-551, 10-minute i.v. infusion", "result": 3487.1, "unit": "ng/mL"}, {"measurement": "peak plasma concentration of OT-551 at the end of the infusion", "setting": "[5]; 100 mg/kg OT-551, 10-minute i.v. infusion", "result": 29020.0, "unit": "ng/mL"}, {"measurement": "peak plasma concentration of OT-551 at the end of the infusion", "setting": "[5]; 200 mg/kg OT-551, 10-minute i.v. infusion", "result": 89740.8, "unit": "ng/mL"}, {"measurement": "plasma levels of OT-551 four hours after termination of the infusion", "setting": "[5]; 30 to 200 mg/kg, assay limit <50 ng/mL", "result": "not quantifiable"}, {"measurement": "Cmax of OT-551", "setting": "[5]; 10-minute iv infusion of OT-551 10 mg/kg", "result": 980.5, "unit": "ng/mL"}, {"measurement": "Cmax of OT-551", "setting": "[5]; 10-minute iv infusion of OT-551 30 mg/kg", "result": 3487.1, "unit": "ng/mL"}, {"measurement": "Cmax of OT-551", "setting": "[5]; 10-minute iv infusion of OT-551 100 mg/kg", "result": 29020.0, "unit": "ng/mL"}, {"measurement": "Cmax of OT-551", "setting": "[5]; 10-minute iv infusion of OT-551 200 mg/kg", "result": 89740.8, "unit": "ng/mL"}, {"measurement": "clearance of OT-551 in rats", "setting": "[5]; rat, in vivo", "result": "very rapid"}]}]}
